Measurements from US3943154A, “Acylamides of beta-cyano-ethenesulfonyl substituted aminoarenes” (Sanitized Incorporated, priority 1973, dated 1976).
≈ marks a conversion by molar mass, not a printed value. Like-named read-outs stand apart in the source and are kept apart here.

Key:
Format in all cases: cell-based
[1] = system: Aspergillus niger ATCC 6257; assay: agar incorporation test, antifungal activity; conditions: lowest concentration showing no growth or sporulation, four days at 28° C; for MIC: Aspergillus niger, ATCC6257, 96 h, read-out: Antifungal Activity A. niger, minimum inhibitory concentration
Method: The anti-fungal activity of the test compounds was determined employing the "agar incorporation" technique, utilizing spores from Aspergillus niger ATCC 6257 as a representative organism. Test solutions were prepared as described above in acetone or dimethylsulfoxide. A source of carbon agar such as Mycophil Agar was used. The agar was melted and cooled and placed in a constant temperature water bath at 45° C + 3° C. About 13-14 ml of the agar was then poured into a sterile Petri dish, the required amount of test solution to give the desired concentration immediately added thereto, and the dish rotated and swirled by hand to obtain a uniform mixture before the agar hardened.
The hardened plates were inoculated with the test organism by fishing spores from a 7-14 day old slant with the inocculating needle and spotting the spores on the plates, usually in several places. The inoculated plates were incubated for four days in an incubator maintained at 28° C +2° C and with a relative humidity of 95%+.
The lowest concentration of each test compound showing no growth or sporulation of the test organism was taken as the minimum inhibitory concentration and is reported in the following tabulation.
(§1) The button assay and agar incorporation tests were also utilized to determine the corresponding inhibitory concentrations of various control materials, viz., the following well known commercial antimicrobials and fungicides: hexachlorophene, tribromosalicylanilide, trichlorocarbanilide,Captan (N-(trichloromethylthio)4cyclohexene-1,2-dicarboximide) and Zineb (zinc ethylenebis[dithiocarbamate]). The minimum inhibitory concentration of each of the various control materials against the respective organisms is indicated in Table IV below: […]

[2] = system: Bacillus subtilis ATCC 9525; assay: button assay, antibacterial activity; conditions: 24 hours at 37° C; for MIC: Bacillus subtilis, ATCC9525, lowest concentration showing a clear zone of inhibition, read-out: Antibacterial Activity B.subtilis, minimum inhibitory concentration; for Antibacterial Activity B.subtilis, minimum inhibitory concentration: lowest concentration showing a clear zone of inhibition
Method: (§2) In the test program, the minimum inhibitory concentrations of the respective test compounds against various Gram positive and Gram negative bacteria were determined, employing the "button assay" method. The test organisms utilized were standard cultures of Staphylococcus aureus ATCC 6538 DR, a penicillin resistant Gram positive bacterium; Bacillus subtilis ATCC 9525, a spore-forming Gram positive bacillus; and Salmonella typhosa ATCC 6539, a Gram negative bacterium.
(§3) In the tests the respective compounds were dissolved in a suitable solvent, usually acetone or dimethylsulfoxide, to give solutions with known concentrations of active material. The highest concentration was ordinarily 1000 ppm (parts per million) [0.1%], and dilutions were made in suitable steps down to 1 ppm. Penicillin test buttons of filter paper having a diameter of 13 mm (socalled "Peniassay" buttons) were added to each solution within a test tube and left submerged for five minutes. They were then removed and left to dry on paper towels under sterile conditions. A laminar flow sterile cabinet equipped with ultraviolet lamps operating under positive air pressure was utilized for this purpose.
(§4) An 18-24 hour old nutrient broth culture (standard 1.5% nutrient agar) prepared in conventional manner from a slant and having passed through at least three consecutive daily transfers was used for inoculation. Melted and cooled sterile agar (45° C) was inoculated with the respective broth cultures by addition of 20 ml broth per liter of agar. The agar was then dispensed into Petri dishes (20 ml per plate) under sterile conditions and allowed to harden.
(§5) The test buttons were placed on the surface of the hardened agar and the plates incubated for 24 hours at 37° C. Where, on inspection, a clear zone of inhibition appeared around the button, inhibition of growth was presumed. Where growth touched the button there was no inhibition. For each of the test compounds, the lowest concentration showing a clear zone is reported as the inhibitory concentration in the following table.
as §1

[3] = system: Staphylococcus aureus ATCC 6538 DR; assay: button assay, antibacterial activity; conditions: for MIC: Staphylococcus aureus, ATCC6538, 24 h, read-out: Antibacterial Activity S.aureus, minimum inhibitory concentration; for Antibacterial Activity S.aureus, minimum inhibitory concentration: button assay, lowest concentration showing a clear zone of inhibition, 24 hours at 37° C
Method: as §2, §3, §4
as §5, with “table. […]” for “table.”

[4] = system: Salmonella typhosa ATCC 6539; assay: button assay, antibacterial activity; conditions: for MIC: Salmonella enterica, read-out: Antibacterial Activity S.typhosa, minimum inhibitory concentration
Method: as §2
as §3, with “The” for “In the tests the respective compounds were dissolved in a suitable solvent, usually acetone or dimethylsulfoxide, to give solutions with known concentrations of active material. The”
as §4
as §5, with “table. […]” for “table.”

[5] = button assay, lowest concentration showing a clear zone of inhibition, 24 hours at 37° C

Structure (SMILES)	MIC [1]	MIC [2]	MIC [3]	MIC ([4]; 24 h)	Antifungal Activity A. niger, minimum inhibitory concentration [1]	Antibacterial Activity B.subtilis, minimum inhibitory concentration [2]	Antibacterial Activity S.aureus, minimum inhibitory concentration [3]	Antibacterial Activity S.typhosa, minimum inhibitory concentration [4, 5]	MIC [4, 5]
N#CC=CS(=O)(=O)c1ccc(NS(=O)(=O)c2cccc(C(=O)O)c2)cc1 [Example 26, 3-[4-(3-carboxybenzenesulfonamido)-benzenesulfonyl]acrylonitrile]	> 1000 µg/mL	10 µg/mL (≈ 25.5 µM)	10 µg/mL (≈ 25.5 µM)	10 µg/mL (≈ 25.5 µM)					
N#CC=CS(=O)(=O)c1ccc(NS(=O)(=O)c2ccc(C3=CC3(Cl)Cl)cc2)cc1 [Example 32, 3-[4-(4-dichlorocarbostyrenesulfonamido)benzenesulfonyl]acrylonitrile]	1000 µg/mL (≈ 2200 µM)	5 µg/mL (≈ 11 µM)	5 µg/mL (≈ 11 µM)	5 µg/mL (≈ 11 µM)					
N#CC=CS(=O)(=O)c1ccc(N)cc1 [3-(4-aminobenzenesulfonyl)acrylonitrile, reference compound]	300 µg/mL (≈ 1440 µM)	20 µg/mL (≈ 96 µM)	20 µg/mL (≈ 96 µM)	20 µg/mL (≈ 96 µM)					
O=C(Nc1ccc(Cl)cc1)Nc1ccc(Cl)c(Cl)c1 [trichlorocarbanilide, reference compound]					1,000 ppm	> 10,000 ppm	10 ppm	10,000 ppm	
N#CC=CS(=O)(=O)c1ccc(NC(=O)c2cccc(S(=O)(=O)Nc3ccc(S(=O)(=O)C=CC#N)cc3)c2)cc1 [Example 31, N'-4-(2-cyanoethenesulfonyl)phenylN"-3-(2-cyanoethenesulfonyl)phenylsulfamoylbenzamide]	100 µg/mL (≈ 172 µM)	20 µg/mL (≈ 34.3 µM)	20 µg/mL (≈ 34.3 µM)	20 µg/mL (≈ 34.3 µM)					
N#CC=CS(=O)(=O)c1ccc(NP(=O)(Nc2ccc(S(=O)(=O)C=CC#N)cc2)N(CCCl)CCCl)cc1 [Example 52, di-(2-chloroethyl)amido-di-4-(2-cyanoethenesulfonylanilido)phosphine oxide]					100 ppm	10 ppm	10 ppm	10 ppm	
N#CC=CS(=O)(=O)c1ccc(NP(=S)(Nc2ccc(S(=O)(=O)C=CC#N)cc2)c2ccccc2)cc1 [Example 59, PHENYL-DI-[4-(2-CYANOETHENESULFONYL)ANILIDO]PHOSPHINE SULFIDE]	500 µg/mL (≈ 902 µM)	50 µg/mL (≈ 90.2 µM)	50 µg/mL (≈ 90.2 µM)						50 µg/mL (≈ 90.2 µM)
O=C1C2CC=CCC2C(=O)N1SC(Cl)(Cl)Cl (centres unmarked) [Captan, N-(trichloromethylthio)4cyclohexene-1,2-dicarboximide, reference compound]	300 µg/mL (≈ 998 µM)	100 µg/mL (≈ 333 µM)	25 µg/mL (≈ 83.2 µM)						25 µg/mL (≈ 83.2 µM)
CC(=O)Nc1ccc(S(=O)(=O)Nc2ccc(S(=O)(=O)C=CC#N)cc2)cc1 [Example 30, 3-[4-(4-[…])BENZENESULFONYL]ACRYLONITRILE]	> 1000 µg/mL	50 µg/mL (≈ 123 µM)	50 µg/mL (≈ 123 µM)	50 µg/mL (≈ 123 µM)					
S=C([S-])NCCNC(=S)[S-].[Zn+2] [Zineb, zinc ethylenebis[dithiocarbamate], reference compound]	> 1000 µg/mL	300 µg/mL	300 µg/mL						> 10000 µg/mL
C=CS(=O)(=O)Nc1ccc(S(=O)(=O)C=CC#N)cc1 [Example 9, 3-(4-[…])ACRYLONITRILE]	100 µg/mL (≈ 335 µM)	10 µg/mL (≈ 33.5 µM)	20 µg/mL (≈ 67 µM)	50 µg/mL (≈ 168 µM)					
N#CC=CS(=O)(=O)c1ccc(NP(=O)(Nc2ccc(S(=O)(=O)C=CC#N)cc2)Nc2ccc(S(=O)(=O)C=CC#N)cc2)cc1 [Example 45, TRIS-N,N', N"-4-(2-CYANOETHENESULFONYL)PHENYL PHOSPHORAMIDE]	300 µg/mL (≈ 449 µM)	5 µg/mL (≈ 7.48 µM)	50 µg/mL (≈ 74.8 µM)	50 µg/mL (≈ 74.8 µM)					
N#CC=CS(=O)(=O)c1ccc(NSc2ccc([N+](=O)[O-])cc2)cc1 [Example 43, 3-[4-(4-nitrobenzenesulfenamido)benzenesulfonyl]acrylonitrile]	300 µg/mL (≈ 830 µM)	5 µg/mL (≈ 13.8 µM)	5 µg/mL (≈ 13.8 µM)	10 µg/mL (≈ 27.7 µM)					
N#CC=CS(=O)(=O)c1ccc(NS(=O)(=O)c2cccc(S(=O)(=O)Nc3ccc(S(=O)(=O)C=CC#N)cc3)c2)cc1 [Example 33, N.N'-bis-[4-(2-cyanoethenesulfonyl)phenyl]-1,3-phenylenesulfonamide]	> 1000 µg/mL	10000 µg/mL (≈ 16200 µM)	300 µg/mL (≈ 485 µM)	100 µg/mL (≈ 162 µM)					
CC(C)c1cc(C(C)C)c(S(=O)(=O)Nc2ccc(S(=O)(=O)C=CC#N)cc2)c(C(C)C)c1 [Example 19, 3-[4-(2,4,6-tri-isopropylbenzenesulfonamido)benzenesulfonyl]acrylonitrile]	> 1000 µg/mL	1000 µg/mL (≈ 2110 µM)	1000 µg/mL (≈ 2110 µM)	1000 µg/mL (≈ 2110 µM)					
CS(=O)(=O)Nc1ccc(S(=O)(=O)C=CC#N)cc1 [Example 1, 3-(4-methanesulfonylamidobenzenesulfonyl)acrylonitrile]	> 1000 µg/mL	100 µg/mL (≈ 349 µM)	300 µg/mL (≈ 1050 µM)	1000 µg/mL (≈ 3490 µM)					
N#CC=CS(=O)(=O)c1ccc(NS(=O)(=O)c2ccc(Cl)cc2[N+](=O)[O-])cc1 [Example 23.3, 3-[4-(4-chloro-2-nitrobenzenesulfonamido)benzenesulfonyl]acrylonitrile]	100 µg/mL (≈ 234 µM)	10 µg/mL (≈ 23.4 µM)	10 µg/mL (≈ 23.4 µM)	20 µg/mL (≈ 46.7 µM)					
CCOC(=O)c1ccc(S(=O)(=O)Nc2ccc(S(=O)(=O)C=CC#N)cc2)cc1 [Example 27, 3-[4-(4-[…])BENZENESULFONYL]ACRYLONITRILE]	100 µg/mL (≈ 238 µM)	20 µg/mL (≈ 47.6 µM)	10 µg/mL (≈ 23.8 µM)	10 µg/mL (≈ 23.8 µM)					
N#CC=CS(=O)(=O)c1ccc(NP(=O)(Nc2ccc(S(=O)(=O)C=CC#N)cc2)c2ccccc2)cc1 [Example 58, phenyl-di-[4-(2-cyanoethenesulfonyl)anilido]phosphine oxide]	100 µg/mL (≈ 186 µM)	10 µg/mL (≈ 18.6 µM)	20 µg/mL (≈ 37.1 µM)	10 µg/mL (≈ 18.6 µM)					
N#CC=CS(=O)(=O)c1ccc(NS(=O)(=O)C=Cc2ccccc2)cc1 [Example 10, 3-[4-(2-phenylethenesulfonamido)benzenesulfonyl]acrylonitrile]	> 1000 µg/mL	5 µg/mL (≈ 13.4 µM)	5 µg/mL (≈ 13.4 µM)	5 µg/mL (≈ 13.4 µM)					
O=C(Nc1ccc(Br)cc1)c1cc(Br)cc(Br)c1O [tribromosalicylanilide, reference compound]					> 1,000 ppm	100 ppm	100 ppm	50 ppm	
N#CC=CS(=O)(=O)c1ccc(NS(=O)(=O)c2ccc([N+](=O)[O-])cc2[N+](=O)[O-])cc1 [Example 23.1, 3-[4-(2,4-dinitrobenzenesulfonamido)benzenesulfonyl]acrylonitrile]	100 µg/mL (≈ 228 µM)	50 µg/mL (≈ 114 µM)	5 µg/mL (≈ 11.4 µM)						50 µg/mL (≈ 114 µM)
N#CC=CS(=O)(=O)c1ccc(NS(=O)(=O)c2ccc(Cl)cc2)cc1 [Example 20, 3-[4-(4-chlorobenzenesulfonamido)benzenesulfonyl]acrylonitrile]	> 1000 µg/mL	5 µg/mL (≈ 13.1 µM)	20 µg/mL (≈ 52.2 µM)	10 µg/mL (≈ 26.1 µM)					
